# Measurements reported in patent US10597388B2, “Pyridazinone herbicides” (FMC CORPORATION, priority 2014, dated 2020).
# Legend:
# Assay in all cases: Test C greenhouse herbicide test, pre- and postemergence
# Format in all cases: in vivo
# [1] = tested on: ryegrass, Italian (Italian ryegrass, Lolium multiflorum)
# Text: (§1) Seeds of plant species selected from blackgrass (Alopecurus myosuroides), ryegrass, Italian (Italian ryegrass, Lolium multiflorum), wheat (winter wheat, Triticum aestivum), galium (catchweed bedstraw, Galium aparine), corn (Zea mays), large crabgrass, large (large crabgrass, Digitaria sanguinalis), foxtail, giant (giant foxtail, Setaria faberii), johnsongrass (Sorghum halepense), lambsquarters (Chenopodium album), morningglory (Ipomoea coccinea), nutsedge, yellow (yellow nutsedge, Cyperus esculentus), pigweed (Amaranthus retroflexus), ragweed (common ragweed, Ambrosia elatior), soybean (Glycine max), barnyardgrass (Echinochloa crus-galli), oilseed rape (Brassica napus), waterhemp (common waterhemp, Amaranthus rudis), and velvetleaf (Abutilon theophrasti) were planted into a blend of loam soil and sand and treated preemergence with test chemicals formulated in a non-phytotoxic solvent mixture which included a surfactant.
# (§2) At the same time, plants selected from these crop and weed species and also chickweed (common chickweed, Stellaria media), kochia (Kochia scoparia), and oat, wild (wild oat, Avena fatua), were planted in pots containing Redi-Earth® planting medium (Scotts Company, 14111 Scottslawn Road, Marysville, Ohio 43041) comprising spaghnum peat moss, vermiculite, wetting agent and starter nutrients and treated with postemergence applications of test chemicals formulated in the same manner. Plants ranged in height from 2 to 18 cm (1- to 4-leaf stage) for postemergence treatments. Treated plants and controls were maintained in a greenhouse for 13 to 15 d, after which time all species were compared to controls and visually evaluated. Plant response ratings, summarized in Table C, are based on a scale of 0 to 100 where 0 is no effect and 100 is complete control. A dash (-) response means no test result.
# [2] = tested on: velvetleaf (Abutilon theophrasti)
# Text: as §1, §2
# [3] = tested on: waterhemp (common waterhemp, Amaranthus rudis)
# Text: as §1, §2
# corn (Zea mays) = tested on: corn (Zea mays)
# Text: as §1, §2
# [4] = tested on: blackgrass (Alopecurus myosuroides)
# Text: as §1, §2
# [5] = tested on: pigweed (Amaranthus retroflexus)
# Text: as §1, §2
# [6] = tested on: foxtail, giant (giant foxtail, Setaria faberii)
# Text: as §1, §2
# soybean (Glycine max) = tested on: soybean (Glycine max)
# Text: as §1, §2
# [7] = tested on: wheat (winter wheat, Triticum aestivum)
# Text: as §1, §2
# [8] = tested on: nutsedge, yellow (yellow nutsedge, Cyperus esculentus)
# Text: as §1, §2
# [9] = tested on: crabgrass, large (large crabgrass, Digitaria sanguinalis)
# Text: as §1, §2
# [10] = tested on: lambsquarters (Chenopodium album)
# Text: as §1, §2
# [11] = tested on: barnyardgrass (Echinochloa crus-galli)
# Text: as §1, §2
# [12] = tested on: galium (catchweed bedstraw, Galium aparine)
# Text: as §1, §2
# [13] = tested on: morningglory (Ipomoea coccinea)
# Text: as §1, §2
# [14] = Postemergence, 31 g ai/ha, scale 0 to 100 (0 no effect, 100 complete control)
# [15] = Postemergence, 125 g ai/ha, scale 0 to 100, 0 is no effect, 100 is complete control
# [16] = Postemergence, 250 g ai/ha, scale 0 to 100, 0 no effect, 100 complete control, 13 to 15 d
# [17] = Preemergence, 31 g ai/ha, scale 0 to 100, 0 is no effect, 100 is complete control
# [18] = Preemergence, 62 g ai/ha, scale 0 to 100, 0 is no effect, 100 is complete control
# [19] = Preemergence, 125 g ai/ha, scale 0 to 100, 0 is no effect, 100 is complete control
# [20] = Preemergence, 250 g ai/ha, scale 0 to 100, 0 no effect, 100 complete control
# [21] = postemergence, 62 g ai/ha, scale 0 to 100, 0 no effect, 100 complete control
smiles,measurement,setting,value
CCCC(=O)Oc1c(C)nn(C)c(=O)c1-c1c(CC)sc2ccc(C)cc12 [Compound 107],"Plant response rating, Ryegrass, Italian",[1]; [14],40
same,"Plant response rating, Ryegrass, Italian",[1]; [15],60
same,"Plant response rating, Ryegrass, Italian",[1]; [16],90
same,"Plant response rating, Ryegrass, Italian",[1]; [17],15
same,"Plant response rating, Ryegrass, Italian",[1]; [18],35
same,"Plant response rating, Ryegrass, Italian",[1]; [19],35
same,"Ryegrass, Italian plant response rating",[1]; [20],30
same,"Plant response rating, Velvetleaf",[2]; [14],75
same,"Plant response rating, Velvetleaf",[2]; [15],95
same,"Plant response rating, Velvetleaf",[2]; [16],100
same,"Plant response rating, Velvetleaf",[2]; [17],30
same,"Plant response rating, Velvetleaf",[2]; [18],60
same,"Plant response rating, Velvetleaf",[2]; [19],85
same,Velvetleaf plant response rating,[2]; [20],90
same,"Plant response rating, Waterhemp",[3]; [14],75
same,"Plant response rating, Waterhemp",[3]; [15],95
same,"Plant response rating, Waterhemp",[3]; [16],90
same,"Plant response rating, Waterhemp",[3]; [17],75
same,"Plant response rating, Waterhemp",[3]; [18],75
same,"Plant response rating, Waterhemp",[3]; [19],95
same,Waterhemp plant response rating,[3]; [20],98
same,"Plant response rating, Corn",corn (Zea mays); [14],5
same,"Plant response rating, Corn",corn (Zea mays); [15],20
same,"Plant response rating, Corn",corn (Zea mays); [16],15
same,"Plant response rating, Corn",corn (Zea mays); [17],0
same,"Plant response rating, Corn",corn (Zea mays); [18],0
same,"Plant response rating, Corn",corn (Zea mays); [19],10
same,Corn plant response rating,corn (Zea mays); [20],15
same,Corn plant response rating,corn (Zea mays); [21],10
same,"Plant response rating, Blackgrass",[4]; [14],0
same,"Plant response rating, Blackgrass",[4]; [15],5
same,"Plant response rating, Blackgrass",[4]; [16],30
same,"Plant response rating, Blackgrass",[4]; [17],0
same,"Plant response rating, Blackgrass",[4]; [18],5
same,"Plant response rating, Blackgrass",[4]; [19],10
same,Blackgrass plant response rating,[4]; [20],10
same,Blackgrass plant response rating,[4]; [21],5
same,"Plant response rating, Pigweed",[5]; [14],85
same,"Plant response rating, Pigweed",[5]; [15],98
same,"Plant response rating, Pigweed",[5]; [16],98
same,"Plant response rating, Pigweed",[5]; [17],100
same,"Plant response rating, Pigweed",[5]; [18],100
same,"Plant response rating, Pigweed",[5]; [19],100
same,Pigweed plant response rating,[5]; [20],100
same,"Plant response rating, Foxtail, Giant",[6]; [14],15
same,"Plant response rating, Foxtail, Giant",[6]; [15],70
same,"Plant response rating, Foxtail, Giant",[6]; [16],75
same,"Plant response rating, Foxtail, Giant",[6]; [17],60
same,"Plant response rating, Foxtail, Giant",[6]; [18],80
same,"Plant response rating, Foxtail, Giant",[6]; [19],85
same,"Foxtail, Giant plant response rating",[6]; [20],98
same,"Plant response rating, Soybean",soybean (Glycine max); [14],0
same,"Plant response rating, Soybean",soybean (Glycine max); [15],20
same,"Plant response rating, Soybean",soybean (Glycine max); [16],10
same,"Plant response rating, Soybean",soybean (Glycine max); [17],75
same,"Plant response rating, Soybean",soybean (Glycine max); [18],0
same,"Plant response rating, Soybean",soybean (Glycine max); [19],0
same,Soybean plant response rating,soybean (Glycine max); [20],15
same,"Plant response rating, Wheat",[7]; [14],0
same,"Plant response rating, Wheat",[7]; [15],0
same,"Plant response rating, Wheat",[7]; [16],0
same,"Plant response rating, Wheat",[7]; [17],0
same,"Plant response rating, Wheat",[7]; [18],0
same,"Plant response rating, Wheat",[7]; [19],0
same,Wheat plant response rating,[7]; [20],5
same,"Plant response rating, Nutsedge, Yellow",[8]; [14],80
same,"Plant response rating, Nutsedge, Yellow",[8]; [15],75
same,"Plant response rating, Nutsedge, Yellow",[8]; [16],85
same,"Plant response rating, Nutsedge, Yellow",[8]; [17],30
same,"Plant response rating, Nutsedge, Yellow",[8]; [18],50
same,"Plant response rating, Nutsedge, Yellow",[8]; [19],70
same,"Nutsedge, Yellow plant response rating",[8]; [20],90
same,"Plant response rating, Crabgrass, Large",[9]; [14],15
same,"Plant response rating, Crabgrass, Large",[9]; [15],35
same,"Plant response rating, Crabgrass, Large",[9]; [16],65
same,"Plant response rating, Crabgrass, Large",[9]; [17],30
same,"Plant response rating, Crabgrass, Large",[9]; [18],30
same,"Plant response rating, Crabgrass, Large",[9]; [19],75
same,"Crabgrass, Large plant response rating",[9]; [20],85
same,"Crabgrass, Large plant response rating",[9]; [21],20
same,"Plant response rating, Lambsquarters",[10]; [14],85
same,"Plant response rating, Lambsquarters",[10]; [15],90
same,"Plant response rating, Lambsquarters",[10]; [16],98
same,"Plant response rating, Lambsquarters",[10]; [17],90
same,"Plant response rating, Lambsquarters",[10]; [18],100
same,"Plant response rating, Lambsquarters",[10]; [19],95
same,Lambsquarters plant response rating,[10]; [20],95
same,"Plant response rating, Barnyardgrass",[11]; [14],35
same,"Plant response rating, Barnyardgrass",[11]; [15],40
same,"Plant response rating, Barnyardgrass",[11]; [16],90
same,"Plant response rating, Barnyardgrass",[11]; [17],15
same,"Plant response rating, Barnyardgrass",[11]; [18],45
same,"Plant response rating, Barnyardgrass",[11]; [19],80
same,Barnyardgrass plant response rating,[11]; [20],98
same,Barnyardgrass plant response rating,[11]; [21],50
same,"Plant response rating, Galium",[12]; [14],95
same,"Plant response rating, Galium",[12]; [15],100
same,"Plant response rating, Galium",[12]; [16],98
same,"Plant response rating, Galium",[12]; [17],90
same,"Plant response rating, Galium",[12]; [18],90
same,"Plant response rating, Galium",[12]; [19],90
same,Galium plant response rating,[12]; [20],95
same,"Plant response rating, Morningglory",[13]; [14],95
same,"Plant response rating, Morningglory",[13]; [15],98
same,"Plant response rating, Morningglory",[13]; [16],100
same,"Plant response rating, Morningglory",[13]; [17],80
same,"Plant response rating, Morningglory",[13]; [18],85
same,"Plant response rating, Morningglory",[13]; [19],95
same,Morningglory plant response rating,[13]; [20],98
